Molecular target: T1, Bcl-2 protein (Recombinant Human Bcl-2 Protein) (Homo sapiens, UniProt P10415)
T1 construct: purchased Novus NBP2-34889
Assay: Binding evaluation of mixture library compounds to Bcl-2 using AS-MS (affinity selection mass spectrometry)
Settings: for ASMS ratio (%) n = 1 / ASMS ratio (%) n = 2: ASMS Ratio(%)=(A−C)/B×100; for ASMS ratio (%) n = 1: replicate n = 1; for ASMS ratio (%) n = 2: replicate n = 2
Procedure, shortened: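 Affinity selection MS: Bcl-2 20 μM + 1200-cpd mixture, […]/cpd, Tris pH 7.4 buffer w/ Tween-20, DTT; 1 h 23° C dark; P-2 spin SEC; MeCN/MeOH extraction; RP LC/MS. ASMS Ratio(%) = (A−C)/B×100.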

[1] = AS-MS on the mixture of 1200 library compounds
[2] = AS-MS, mixture of 1200 compounds, Bcl-2

T1 sequence (P10415 whole entry): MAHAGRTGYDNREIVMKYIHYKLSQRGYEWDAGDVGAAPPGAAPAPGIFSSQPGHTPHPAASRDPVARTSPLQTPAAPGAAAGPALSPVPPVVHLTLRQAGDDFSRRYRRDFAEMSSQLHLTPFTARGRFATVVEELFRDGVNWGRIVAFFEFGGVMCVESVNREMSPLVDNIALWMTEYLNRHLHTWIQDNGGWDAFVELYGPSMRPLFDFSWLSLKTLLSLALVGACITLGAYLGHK

Molecule	ASMS ratio (%) n = 1 [1] [%]	ASMS ratio (%) n = 2 [1] [%]	ASMS ratio (%) (n = 1)	ASMS ratio (%) (n = 2)	further results
CCOc1cncc(-c2csc(C(=O)N3CCN(c4ccc(C(=O)N(C)CC56CC7CC(CC(C7)C5)C6)nn4)CC3)c2)c1 [B3A002-01, N-(1-Adamantylmethyl)-6-[4-[4-(5-ethoxypyridin-3-yl)thiophene-2-carbonyl]piperazin-1-yl]-N-methylpyridazine-3-carboxamide]	1.9	−1.2	–	–	–
CCOc1cncc(-c2ccc(CN3CCN(c4ccc(C(=O)NS(=O)(=O)c5ccc(NCCSc6ccccc6)c(C(F)(F)F)c5)nn4)CC3)c(CC)c2)c1 [B2R076-01, 6-[4-[[4-(5-Ethoxypyridin-3-yl)-2-ethylphenyl]methyl]piperazin-1-yl]-N-[4-(2-phenylsulfanylethylamino)-3-(trifluoromethyl)phenyl]sulfonylpyridazine-3-carboxamide]	–	–	3.9	19.7	–
CCOc1cncc(-c2cc(C(=O)N3CCN(c4ccc(C(=O)N(CC)CC)cc4)CC3)cc(C(C)(C)C)c2)c1 [B4J038-01, 4-[4-[3-tert-Butyl-5-(5-ethoxypyridin-3-yl)benzoyl]piperazin-1-yl]-N,N-diethylbenzamide]	0.8	0.0	–	–	–
CCOc1cncc(-c2cc(C(=O)N3CCN(c4ccc(C(=O)NCC56CC7CC(CC(C7)C5)C6)nn4)CC3)cc(C(F)(F)F)c2)c1 [B1A018-01, N-(1-Adamantylmethyl)-6-[4-[3-(5-ethoxypyridin-3-yl)-5-(trifluoromethyl)benzoyl]piperazin-1-yl]pyridazine-3-carboxamide]	–	–	–	–	ASMS ratio (%) n = 1 [2]: −6.5%; ASMS ratio (%) n = 2 [2]: 9.9%
CCOc1cccc(-c2cc(C(=O)N3CCN(c4ccc(C(=O)N(CC)CC)nn4)CC3)cc(C(F)(F)F)c2)c1 [B4J017-01, 6-[4-[3-(3-Ethoxyphenyl)-5-(trifluoromethyl)benzoyl]piperazin-1-yl]-N,N-diethylpyridazine-3-carboxamide]	−0.3	−0.5	–	–	–
CCOc1cccc(-c2ccc(CN3CCN(c4ccc(C(=O)NCC(F)(F)F)cc4)CC3)c3ccccc23)c1 [B1K065-01, 4-[4-[[4-(3-Ethoxyphenyl)naphthalen-1-yl]methyl]piperazin-1-yl]-N-(2,2,2-trifluoroethyl)benzamide]	–	–	–	–	ASMS ratio (%) n = 1 [2]: 5.9%; ASMS ratio (%) n = 2 [2]: −5.6%
CCOc1cncc(-c2cc(C(=O)N3CCN(c4ccc(C(=O)N(C)CC56CC7CC(CC(C7)C5)C6)nn4)CC3)cc(C(C)(C)C)c2)c1 [B3A016-01, N-(1-Adamantylmethyl)-6-[4-[3-tert-butyl-5-(5-ethoxypyridin-3-yl)benzoyl]piperazin-1-yl]-N-methylpyridazine-3-carboxamide]	2.8	0.1	–	–	–
CCOc1cccc(-c2csc(CN3CCN(c4ccc(C(=O)N(CC)CC)cc4)CC3)c2)c1 [B4J067-01, 4-[4-[[4-(3-Ethoxyphenyl)thiophen-2-yl]methyl]piperazin-1-yl]-N,N-diethylbenzamide]	–	–	–	–	ASMS ratio (%) n = 1 (AS-MS, mixture library, Bcl-2): −11.0%; ASMS ratio (%) n = 2 (AS-MS, mixture library, Bcl-2): −5.5%
CCOc1cncc(-c2ccc(CN3CCN(c4ccc(C(=O)NCC(F)(F)F)cc4)CC3)cc2C)c1 [B1K048-01, 4-[4-[[4-(5-Ethoxypyridin-3-yl)-3-methylphenyl]methyl]piperazin-1-yl]-N-(2,2,2-trifluoroethyl)benzamide]	–	–	–	–	ASMS ratio (%) n = 1 [2]: 0.1%; ASMS ratio (%) n = 2 [2]: 1.2%
CCOc1cccc(-c2ccc(C(=O)N3CCN(c4ccc(C(=O)Nc5ccc(OC)cc5)cc4)CC3)c3ccccc23)c1 [B1O035-01, 4-[4-[4-(3-Ethoxyphenyl)naphthalene-1-carbonyl]piperazin-1-yl]-N-(4-methoxyphenyl)benzamide]	4.3	−3.7	–	–	–
CCOc1cncc(-c2cc(CN3CCN(c4ccc(C(=O)NS(=O)(=O)CCC(F)(F)F)cc4)CC3)cc(OCC)c2)c1 [B2N056-01]	–	–	0.0	0.0	–
CCOc1cccc(C#Cc2cc(C(=O)N3CCN(c4ccc(C(=O)Nc5ccc(OC)cc5)cc4)CC3)cc(C(F)(F)F)c2)c1 [B1O041-01, 4-[4-[3-[2-(3-Ethoxyphenyl)ethynyl]-5-(trifluoromethyl)benzoyl]piperazin-1-yl]-N-(4-methoxyphenyl)benzamide]	10.4	−2.8	–	–	–
CCOc1cncc(-c2cc(CN3CCN(c4ccc(C(=O)NS(=O)(=O)C(C)(C)C)nn4)CC3)cc(OC(F)(F)F)c2)c1 [B2L090-01, N-tert-Butylsulfonyl-6-[4-[[3-(5-ethoxypyridin-3-yl)-5-(trifluoromethoxy)phenyl]methyl]piperazin-1-yl]pyridazine-3-carboxamide]	–	–	0.0	0.0	–
CCOc1cccc(-c2ccc(CN3CCN(c4ccc(C(=O)NS(=O)(=O)CC56CC7CC(CC(C7)C5)C6)cc4)CC3)c(CC)c2)c1 [B2A049-01, N-(1-Adamantylmethylsulfonyl)-4-[4-[[4-(3-ethoxyphenyl)-2-ethylphenyl]methyl]piperazin-1-yl]benzamide]	–	–	–	–	ASMS ratio (%) n = 1 (AS-MS, mixture library, Bcl-2): −3.0%; ASMS ratio (%) n = 2 (AS-MS, mixture library, Bcl-2): 6.2%
CCOc1cccc(-c2ccc(CN3CCN(c4ccc(C(=O)Nc5ccc(OC)cc5)cc4)CC3)cc2C)c1 [B1O047-01, 4-[4-[[4-(3-Ethoxyphenyl)-3-methylphenyl]methyl]piperazin-1-yl]-N-(4-methoxyphenyl)benzamide]	4.1	1.5	–	–	–
CCOc1cccc(-c2csc(C(=O)N3CCN(c4ccc(C(=O)NS(=O)(=O)C(C)(C)C)cc4)CC3)c2)c1 [B2L023-01, N-tert-Butylsulfonyl-4-[4-[4-(3-ethoxyphenyl)thiophene-2-carbonyl]piperazin-1-yl]benzamide]	–	–	0.0	0.0	–
4-[4-[[4-(3-Ethoxyphenyl)-2-ethylphenyl]methyl]piperazin-1-yl]-N-propylbenzamide [B1M069-01]	–	–	–	–	ASMS ratio (%) n = 1 [2]: −0.2%; ASMS ratio (%) n = 2 [2]: −4.4%
CCOc1cncc(-c2cc(CN3CCN(c4ccc(C(=O)NCC56CC7CC(CC(C7)C5)C6)cc4)CC3)cc(OCC)c2)c1 [B1A056-01, N-(1-Adamantylmethyl)-4-[4-[[3-ethoxy-5-(5-ethoxypyridin-3-yl)phenyl]methyl]piperazin-1-yl]benzamide]	–	–	–	–	ASMS ratio (%) n = 1 [2]: 9.7%; ASMS ratio (%) n = 2 [2]: 4.0%
CCOc1cncc(-c2ccc(C(=O)N3CCN(c4ccc(C(=O)Nc5ccc(OC)cc5)nn4)CC3)cc2C)c1 [B1O004-01, 6-[4-[4-(5-Ethoxypyridin-3-yl)-3-methylbenzoyl]piperazin-1-yl]-N-(4-methoxyphenyl)pyridazine-3-carboxamide]	2.8	0.4	–	–	–
CCOc1cccc(-c2cc(OC)c(CN3CCN(c4ccc(C(=O)NS(=O)(=O)CCC(F)(F)F)nn4)CC3)c(OC)c2)c1 [B2N085-01]	–	–	0.0	0.0	–
CCOc1cncc(-c2cc(CN3CCN(c4ccc(C(=O)NS(=O)(=O)C(C)(C)C)nn4)CC3)cc(C(F)(F)F)c2)c1 [B2L088-01, N-tert-Butylsulfonyl-6-[4-[[3-(5-ethoxypyridin-3-yl)-5-(trifluoromethyl)phenyl]methyl]piperazin-1-yl]pyridazine-3-carboxamide]	–	–	0.0	2.8	–
CCOc1cncc(-c2ccc(CN3CCN(c4ccc(C(=O)NS(=O)(=O)c5ccc(NCCSc6ccccc6)c(C(F)(F)F)c5)cc4)CC3)c3ccccc23)c1 [B2R066-01, 4-[4-[[4-(5-Ethoxypyridin-3-yl)naphthalen-1-yl]methyl]piperazin-1-yl]-N-[4-(2-phenylsulfanylethylamino)-3-(trifluoromethyl)phenyl]sulfonylbenzamide]	–	–	19.8	−10.7	–
CCOc1cccc(-c2ccc(CN3CCN(c4ccc(C(=O)NCC(F)(F)F)nn4)CC3)cc2C)c1 [B1K073-01, 6-[4-[[4-(3-Ethoxyphenyl)-3-methylphenyl]methyl]piperazin-1-yl]-N-(2,2,2-trifluoroethyl)pyridazine-3-carboxamide]	–	–	–	–	ASMS ratio (%) n = 1 [2]: 3.1%; ASMS ratio (%) n = 2 [2]: −1.9%
CCOc1cccc(-c2ccc(CN3CCN(c4ccc(C(=O)N(CC)CC)nn4)CC3)c(CC)c2)c1 [B4J075-01, 6-[4-[[4-(3-Ethoxyphenyl)-2-ethylphenyl]methyl]piperazin-1-yl]-N,N-diethylpyridazine-3-carboxamide]	–	–	–	–	ASMS ratio (%) n = 1 (AS-MS, mixture library, Bcl-2): 0.0%; ASMS ratio (%) n = 2 (AS-MS, mixture library, Bcl-2): 0.0%
CCOc1cccc(C#Cc2cncc(C(=O)N3CCN(c4ccc(C(=O)NS(=O)(=O)c5ccc(NCCSc6ccccc6)c(C(F)(F)F)c5)cc4)CC3)c2)c1 [B2R031-01, 4-[4-[5-[2-(3-Ethoxyphenyl)ethynyl]pyridine-3-carbonyl]piperazin-1-yl]-N-[4-(2-phenylsulfanylethylamino)-3-(trifluoromethyl)phenyl]sulfonylbenzamide]	–	–	0.0	4.8	–
